One assay concerns K562 cells. Put plainly: Cell viability assay (CellTiter-Glo). Format: cell-based, human. The following applies: WT K562, 5.12 pM to 10 uM, n = 3 (Table S4). How it is done:
(§1) Cells were seeded in 96-well plates at a cell density of […], and each treatment was performed in biological triplicates. Cell viability was assessed using the CellTiter-Glo assay (CellTiter-Glo Luminescent Cell Viability Assay, Promega G7573) according to manufacturer instructions. Luminescence signal was measured on a Multilabel Plate Reader Platform Victor X3 model 2030 (PerkinElmer). Survival curves and EC50 values were determined using GraphPad Prism v.10.0.3 by fitting a nonlinear regression to the log10-transformed drug concentration and the relative viability after normalization of each data point to the mean luminescence of the lowest drug concentration.

A further assay has as its system KBM7 cells. Put plainly: Cell viability assay (CellTiter-Glo). Format: cell-based, human. Conditions: WT KBM7, 5.12 pM to 10 uM, n = 3 (Table S4). How it is done: as §1
A further assay relates to RKO WT cells. Put plainly: cells. The assay is classed as cell-based, human. How it is done: (§2) RKO WT, VHL KO, CRBN KO and CRBN/VHL dKO cells were cultured in Dulbecco’s modified Eagle’s medium supplemented with 10% FCS and 1% penicillin–streptomycin. RKO CRBN KO and VHL KO were generated previously.[45] RKO CRBN/VHL dKO cells were generated by transiently expressing pSpCas9(BB)-2A-GFP (PX458) (Addgene 48138) loaded with a short guide RNA (sgRNA) targeting VHL (Fwd: […], Rev: […]) in RKO CRBN KO cells. Clones were single cell seeded and checked for VHL and CRBN double deletion via Western blot or PCR on genomic DNA (gDNA).
Cells were seeded in 96-well plates at a cell density of 3750 cells per well and treated for 3 days with DMSO or drug at ten √10 serial diluted concentrations. […] Cell viability was assessed using the CellTiter-Glo assay (CellTiter-Glo Luminescent Cell Viability Assay, Promega G7573) according to manufacturer instructions. Luminescence signal was measured on a Multilabel Plate Reader Platform Victor X3 model 2030 (PerkinElmer). Survival curves and EC50 values were determined using GraphPad Prism v.10.0.3 by fitting a nonlinear regression to the log10-transformed drug concentration and the relative viability after normalization of each data point to the mean luminescence of the lowest drug concentration.

The subject of another assay is RKO CRBN/VHL dKO cells. Put plainly: Cell viability assay (CellTiter-Glo). Format: cell-based, human. Conditions: read-out: EC50 RKO CRBN/VHL dKO. How it is done:
as §2
(§3) Cells were seeded in 96-well plates at a cell density of 3750 cells per well and treated for 3 days with DMSO or drug at ten √10 serial diluted concentrations. Starting concentration for all drugs was 10 μM, and each treatment was performed in biological triplicates. Cell viability was assessed using the CellTiter-Glo assay (CellTiter-Glo Luminescent Cell Viability Assay, Promega G7573) according to manufacturer instructions. Luminescence signal was measured on a Multilabel Plate Reader Platform Victor X3 model 2030 (PerkinElmer). Survival curves and EC50 values were determined using GraphPad Prism v.10.0.3 by fitting a nonlinear regression to the log10-transformed drug concentration and the relative viability after normalization of each data point to the mean luminescence of the lowest drug concentration.

Another assay deals with RKO CRBN KO cells. As to the kind of experiment: Cell viability assay (CellTiter-Glo). Format: cell-based, human. The protocol: as §2, §3
Another assay relates to RKO VHL KO cells. Put plainly: Cell viability assay (CellTiter-Glo). The assay is classed as cell-based, human. How it is done: as §2, §3
The next assay addresses BRD4 (Homo sapiens, UniProt O60885). As to the kind of experiment: Live cell kinetic HiBiT degradation assay, HiBiT-BRD4 HEK293 cells (parental, CRBN KO, VHL KO). Conditions: for fold drop in BRD4 degradation potency (Dmax 50) when CRBN recruitment was outcompeted by pomalidomide: 20 μM pomalidomide vs vehicle, HiBiT-BRD4 HEK293 cells; for EC50: HiBiT-BRD4 CRISPR knock-in HEK293 cells, live cell kinetic degradation, 24 h, read-out: Dmax 50 BRD4. The assay is classed as cell-based. The protocol:
(§4) HEK293 HiBiT-BRD2 (LgBiT stable), HEK293 HiBiT-BRD3 (LgBiT stable), and HEK293 HiBiT-BRD4 (LgBiT stable) were created using CRISPR/Cas9 to insert at HiBiT tag at the N-terminal genomic loci of BRD2, BRD3, or BRD4 in a cell line stably expressing LgBiT protein as described previously.[23]
(§5) For kinetic degradation experiments, HEK293 HiBiT-BRD2, 3, or 4 (LgBiT stable) cells and HEK293 HiBiT-BRD4 (LgBiT) CRBN KO and VHL KO cells were plated at 20,000 cells/well in DMEM +10% FBS in white 96-well tissue culture plates and allowed to adhere overnight. The next day, media was removed and 90 μL of prewarmed CO2-independent medium (Gibco) containing Endurazine (Promega) at a 1:100 dilution from stock was added. Plates were incubated at 37 °C for 3 h to allow luminescence to equilibrate. A threefold dilution series of each PROTAC at 10x the desired final concentration was prepared (with the amount of DMSO in each treatment condition kept constant). After luminescence equilibration, a preread luminescence measurement was taken (prior to compound addition) to allow for baseline normalization to account for possible plating differences. Cells were then treated with 10 μL of the prepared PROTAC dilution series (in triplicate or quadruplicate). Treated plates were placed in a GloMax Discover luminometer (Promega) prewarmed to 37 °C and luminescence measurements were obtained every 7 min for 24 h. Kinetic degradation plots were obtained by first normalizing time course luminescence readings in each well to the preread measurement, then to the average value of the DMSO only control at each time point. Data was analyzed using GraphPad Prism (version 8) and excel. Dmax values were identified as the lowest luminescence reading in each well. Rate constant values were calculated using a one phase exponential decay Y = (Y0-Plateau) e(K*^X) + Plateau using Prism (Y0 constrained to 1). Dmax 50 values were calculated by plotting Dmax as a function of concentration, then fitting plots using the following equation: [drawing 1] to determine IC50.
HiBiT-BRD4 (LgBiT stable) HEK293 cells (Promega) were used to generate both VHL KO HiBiT-BRD4 (LgBiT stable) and CRBN KO HiBiT-BRD4 (LgBiT stable) cell lines. For VHL, gRNAs targeting exon 1 ([…]) and exon 2 ([…]) and for CRBN, gRNAs targeting exon 3 ([…]) and exon 6 ([…]) were purchased from IDT DNA (Table 5). For each gRNA, tracrRNA/crRNA duplexes were formed by combining 10 μL of 100 μM Alt-R […] (IDT), 100 μM Alt-R crRNA (IDT) and heating at 95C for 5 min, then were allowed to cool to room temp for 20 min. RNPs were then formed by combining 75 pmol Cas9 (IDT) with 2.4 μL total of prepared tracrRNA/crRNA complex (1.2 μL for each gRNA targeting each exon). Cells were then trypsinized and resuspended at 10,000,000 cells/mL in 1 mL of Mirus Ingenio electroporation solution. Three μL of 100 μM electroporation enhancer (Mirus) was added, along with 3 μL of RNP solution. Cells were electroporated in 2 mm cuvettes using a BioRad system (190 V, 950 μF, infinite resistance) and were then plated in a T75 flask in full growth medium to allow for recovery. After recovery from electroporation, knockout pools were sorted for single cells in 96-well tissue culture treated plates. Clonal populations which expanded from single cells were then screened for loss of function of VHL by treating with MZ1, or loss of function of CRBN by treating with dBET6, using a HiBiT-BRD4 luminescent readout assay. Genomic DNA isolated from candidate clones was then PCR-amplified (Table of primers below), Gibson-assembled into a pF1A plasmid backbone, transformed into E. coli., and then Sanger sequenced to confirm presence of indels in the targeted exons. […] VHL exon 3 carried a 19 bp deletion on one allele, and a 1 bp insertion on the other allele, both occurring after the premature stop codon in exon 1.

In another assay the target is T1, BRD2 (Homo sapiens, UniProt P25440).
T1 construct: HiBiT, is appended to the N-terminus of endogenous BRD2, BRD3, and BRD4; endogenous in cells
T1 sequence (P25440 whole entry): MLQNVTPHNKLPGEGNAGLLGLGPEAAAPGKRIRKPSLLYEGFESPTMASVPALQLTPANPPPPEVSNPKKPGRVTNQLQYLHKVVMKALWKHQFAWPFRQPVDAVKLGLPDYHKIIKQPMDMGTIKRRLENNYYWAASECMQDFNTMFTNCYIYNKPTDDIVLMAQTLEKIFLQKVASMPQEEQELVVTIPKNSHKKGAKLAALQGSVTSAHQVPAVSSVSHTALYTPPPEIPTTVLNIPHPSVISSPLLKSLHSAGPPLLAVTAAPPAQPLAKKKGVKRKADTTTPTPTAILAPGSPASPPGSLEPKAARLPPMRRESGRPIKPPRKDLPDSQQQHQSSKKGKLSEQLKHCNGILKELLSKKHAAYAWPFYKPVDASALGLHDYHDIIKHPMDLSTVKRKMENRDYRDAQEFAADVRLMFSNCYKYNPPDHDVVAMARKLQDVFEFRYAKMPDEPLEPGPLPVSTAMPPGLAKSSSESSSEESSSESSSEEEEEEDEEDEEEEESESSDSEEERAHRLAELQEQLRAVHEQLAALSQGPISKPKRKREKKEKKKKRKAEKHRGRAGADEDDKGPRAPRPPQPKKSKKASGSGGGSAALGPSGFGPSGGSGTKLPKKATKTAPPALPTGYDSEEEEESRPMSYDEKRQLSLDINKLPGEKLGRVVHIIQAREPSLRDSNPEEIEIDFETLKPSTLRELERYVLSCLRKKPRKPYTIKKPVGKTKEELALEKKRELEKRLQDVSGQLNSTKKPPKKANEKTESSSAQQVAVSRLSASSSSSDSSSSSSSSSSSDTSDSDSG
Put plainly: Live cell kinetic HiBiT degradation assay, HiBiT-BRD2 HEK293 cells. Format: cell-based. The following applies: HiBiT-BRD2 CRISPR knock-in HEK293 cells, live cell kinetic degradation, 24 h; read-out: Dmax 50 BRD2. The protocol:
as §4, §5

The next assay deals with T2, BRD3 (Homo sapiens, UniProt Q15059).
T2 construct: HiBiT, is appended to the N-terminus of endogenous BRD2, BRD3, and BRD4; endogenous in cells
T2 sequence (Q15059 whole entry): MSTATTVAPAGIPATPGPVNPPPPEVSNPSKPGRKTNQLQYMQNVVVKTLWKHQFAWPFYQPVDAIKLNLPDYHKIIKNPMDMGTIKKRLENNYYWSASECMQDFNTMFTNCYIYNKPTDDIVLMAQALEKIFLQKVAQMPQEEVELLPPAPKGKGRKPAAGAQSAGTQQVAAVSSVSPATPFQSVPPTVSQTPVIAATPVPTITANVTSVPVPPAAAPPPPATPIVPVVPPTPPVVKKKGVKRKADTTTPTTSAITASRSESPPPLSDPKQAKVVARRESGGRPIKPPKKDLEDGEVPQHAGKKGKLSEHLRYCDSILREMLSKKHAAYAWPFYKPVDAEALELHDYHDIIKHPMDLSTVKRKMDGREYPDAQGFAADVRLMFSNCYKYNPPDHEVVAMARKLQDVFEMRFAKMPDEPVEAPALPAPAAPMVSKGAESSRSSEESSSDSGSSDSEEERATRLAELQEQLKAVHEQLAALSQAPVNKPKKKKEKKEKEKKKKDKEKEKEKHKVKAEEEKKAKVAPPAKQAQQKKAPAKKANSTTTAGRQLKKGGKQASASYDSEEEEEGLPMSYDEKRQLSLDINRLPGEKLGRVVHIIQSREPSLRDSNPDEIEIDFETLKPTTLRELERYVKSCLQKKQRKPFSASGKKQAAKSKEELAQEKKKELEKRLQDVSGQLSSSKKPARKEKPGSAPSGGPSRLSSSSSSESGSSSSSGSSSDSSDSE
As to the kind of experiment: Live cell kinetic HiBiT degradation assay, HiBiT-BRD3 HEK293 cells. The assay is classed as cell-based. The following applies: HiBiT-BRD3 CRISPR knock-in HEK293 cells, live cell kinetic degradation, 24 h; read-out: Dmax 50 BRD3. The protocol:
as §4, §5

The mark [1] stands for this setting: Homo sapiens, 72 h, 316 pM to 10 μM, 3 days, n = 6 (Figure 3C, Table S1), read-out: EC50 RKO WT.
The mark [2] stands for this setting: Homo sapiens, 72 h, 316 pM to 10 μM, 3 days, n = 6 (Figure 3C, Table S1).

Like-named read-outs stand apart in the source and are kept apart here.

For the compound `Cc1sc2c(c1C)C(c1ccc(Cl)cc1)=N[C@@H](CC(=O)NCCCCCCCCNC(=O)COc1cccc3c1C(=O)N(C1CCC(=O)NC1=O)C3=O)c1nnc(C)n1-2` (some centres unmarked) [dBET6, reference compound], the EC50 in the assay on K562 cells was 0.0064 µM; in the assay on KBM7 cells, 0.0037 µM; in the assay on RKO WT cells (316 pM to 10 μM, 3 days, n = 6 (Figure 3C, Table S1), read-out: EC50 RKO WT), 0.281 µM; with RKO WT cells (500 pM to 10 μM, 3 days (Figure 10, Table S6), read-out: EC50 RKO WT), 0.256 µM; in the assay with RKO WT cells (RKO WT, 316 pM to 10 μM, n = 6, combination: dBET6 and MZ1 each from 5 μM (Table S7), read-out: EC50 RKO), 0.106 µM; with RKO WT cells (WT RKO, 316 pM to 10 μM, n = 3 (Table S4), read-out: EC50 RKO) it was 0.272 µM. For the same compound, the EC50 in the assay on RKO CRBN/VHL dKO cells (both VHL and CRBN knocked out (Figure 3C)) was more than 10 µM; in the assay with RKO CRBN KO cells (Figure 10 experiment), more than 10 µM; in the assay on RKO VHL KO cells (316 pM to 10 μM, 3 days, n = 6 (Figure 3C, Table S1)), 0.233 µM; with RKO VHL KO cells (500 pM to 10 μM, 3 days (Figure 10, Table S6)), 0.291 µM.

For the compound `Cc1ncsc1-c1ccc(CNC(=O)[C@@H]2C[C@@H](O)CN2C(=O)[C@@H](NC(=O)COCC(C)(COCCOCCNC(=O)C[C@@H]2N=C(c3ccc(Cl)cc3)c3c(sc(C)c3C)-n3c(C)nnc32)COCCOCCNc2cccc3c2C(=O)N(C2CCC(=O)NC2=O)C3=O)C(C)(C)C)cc1` (stereo partly drawn) [MN675 (2), (2S,4R)-1-((17S)-17-(tert-Butyl)-1-((S)-4-(4-chlorophenyl)-2,3,9-trimethyl-6H-thieno[3,2-f][1,2,4]triazolo[4,3-a][1,4]diazepin-6-yl)-11-((2-(2-((2-(2,6-dioxopiperidin-3-yl)-1,3-dioxoisoindolin-4-yl)amino)ethoxy)ethoxy)methyl)-11-methyl-2,15-dioxo-6,9,13-trioxa-3,16-diazaoctadecan-18-oyl)-4-hydroxy-N-(4-(4-methylthiazol-5-yl)benzyl)pyrrolidine-2-carboxamide], the EC50 in the assay with K562 cells (Homo sapiens) turned out to be 0.327 µM; in the assay on KBM7 cells (Homo sapiens, KBM-7), 0.175 µM; on BRD4, 0.055 µM; in the assay with RKO WT cells (setting [1]) it was 0.489 µM; with RKO WT cells (Homo sapiens, WT RKO, 316 pM to 10 μM, n = 3 (Table S4), read-out: EC50 RKO) it was 0.445 µM; in the assay with RKO CRBN/VHL dKO cells (setting [2]), 2.06 µM. The EC50 in the assay on RKO CRBN KO cells (setting [2]) is 0.601 µM; in the assay on RKO VHL KO cells (setting [2]) it was 0.87 µM. Also, at BRD4, the “fold drop in BRD4 degradation potency (Dmax 50) when CRBN recruitment was outcompeted by pomalidomide” value was 3.6 fold. In addition, the DC50 at BRD2 was 0.156 µM; on BRD3, 0.021 µM.

As to `Cc1ncsc1-c1ccc(CNC(=O)[C@@H]2C[C@@H](O)CN2C(=O)[C@@H](NC(=O)COCC(C)(COCCOCCOCCNC(=O)C[C@@H]2N=C(c3ccc(Cl)cc3)c3c(sc(C)c3C)-n3c(C)nnc32)COCCOCCOCCNc2cccc3c2C(=O)N(C2CCC(=O)NC2=O)C3=O)C(C)(C)C)cc1` (stereo partly drawn) [MN666 (1), (2S,4R)-1-((20S)-20-(tert-Butyl)-1-((S)-4-(4-chlorophenyl)-2,3,9-trimethyl-6H-thieno[3,2-f][1,2,4]triazolo[4,3-a][1,4]diazepin-6-yl)-14-((2-(2-(2-((2-(2,6-dioxopiperidin-3-yl)-1,3-dioxoisoindolin-4-yl)amino)ethoxy)ethoxy)ethoxy)methyl)-14-methyl-2,18-dioxo-6,9,12,16-tetraoxa-3,19-diazahenicosan-21-oyl)-4-hydroxy-N-(4-(4-methylthiazol-5-yl)benzyl)pyrrolidine-2-carboxamide], the “fold drop in BRD4 degradation potency (Dmax 50) when CRBN recruitment was outcompeted by pomalidomide” value at BRD4 is on record as 5.3 fold. Besides, the EC50 at BRD4 worked out at 0.037 µM; in the assay with RKO WT cells (setting [1]), 0.72 µM; in the assay on RKO CRBN/VHL dKO cells (setting [2]), 1.58 µM; in the assay on RKO CRBN KO cells (setting [2]), 0.703 µM; in the assay on RKO VHL KO cells (setting [2]) it was 0.336 µM. Moreover, the DC50 worked out at 0.084 µM at BRD2 and 0.023 µM at BRD3.

These data come from article PMC11638965, “Leveraging Dual-Ligase Recruitment to Enhance Protein Degradation via a Heterotrivalent Proteolysis Targeting Chimera” (Journal of the American Chemical Society, 2024).
